In brackets after ≈: the same amount, converted by molar mass. Where two headings read alike, the source gives them in different places.

Series [1] is described as follows: Kinetic solubility across pH (PBS pH 7.4, FaSSGF pH 1.6, FaSSIF pH 6.5). Format: physicochemical. Particulars: kinetic from dmso stock. On the procedure:
Kinetic solubility method was used to determine the solubility of NCEs across pH ranges, PBS pH 7.4, FaSSGF pH 1.6 & FaSSIF pH 6.5.
Procedure • 1. Seven calibration standards (i.e. 1, 5, 10, 50, 100, 200 and 300 μM) were prepared in DMSO from the 20 mM primary stock solution. • 2. Dispensed an aliquot of 198 IL of 0.001 M PBS into duplicate wells of a multiscreen solubility filter plate. • 3. Subsequently, added 2 μL of test compound solution (20 mM primary stock solution), cover the plate and shake at 150 rotations per minute for 90 minutes. • 4. At the end of 90 minutes, samples were filtered using MultiScreen HTS vacuum Manifold assembly and the filtrate was collected into the acceptor plate. • 5. An aliquot of 150 μL of filtrate from the above 96-well acceptor plate was transferred into HIPLC vials and analyzed by HIPLC-UV.

A further series relates to MiaPaCa-2 cells. Briefly: Cytotoxicity assay, cell proliferation (Alamar Blue). The settings on record: Homo sapiens, MIA PaCa-2, 72 h. Format: cell-based. On the procedure: (§1) Cell Culture Protocol:— 1) Protocol for Reviving Cell Line(s) • 1. Take out the cell vials from LN2 container & thaw immediately at 37° C. • 2. Wipe it with 70% alcohol properly • 3. Transfer to sterile centrifuge tubes containing 9 ml media & spin at 1000 rpm for 5 min. • 4. Discard the supernatant & resuspend the pellet in 2-3 ml media and transfer to T-75 or T-150 culture flasks containing 15 or 30 ml media respectively. • 5. Incubate at 37° C.-5% CO2. 2) Protocol for Sub-Culturing Cell Line(s)
(§2) Cells should be sub-cultured when they reach 70-80% confluence. • 1. Discard the media from cell culture flask. • 2. Add 3 to 4 ml of TrypLE Express dissociation solution; keep in CO2 incubator for ˜5 min. Mix gently to avoid cell clumping. • 3. Add 4.0 to 5.0 ml of complete growth medium and mix gently & transfer to centrifuge tube. • 4. Centrifuge at 1000 rpm for 5 min. • 5. Discard the supernatant & re-suspend the pellet in 3-4 ml of media. • 6. Count the cells in cell counter or using hemocytometer. • 7. Split the cells in 1:2 or 1:4 ratio into new culture flasks. • 8. Incubate cultures at 37° C.-5% CO2 to get confluence 3) Protocol for Preserving Cell Line(s) • 1. Discard the spent media from the TC flask. • 2. Add 3 to 4 ml of TrypLE Express dissociation solution; keep in CO2 incubator for ˜5 min. Mix gently to avoid cell clumping. • 3. Add 4.0 to 5.0 ml of complete growth medium and mix gently & transfer to centrifuge tube. • 4. Centrifuge at 1000 rpm for 5 min. • 5. Discard the supernatant & re-suspend the pellet in 3-4 ml of media. • 6. Count the cells in cell counter or using hemocytometer. • 7. Spin at 1000 rpm for 5 min, discard the supernatant and re-suspend the pellet in 900 μl of media+100 μl of DMSO (Freeze app. 1.5 to 3 million cells/vial). • 8. Keep the vials in −80° C. overnight & transfer to LN2 container. Cell Proliferation (Alamar Blue) Assay:— • Seed cells at 2000 cells in 100 μL/well in 96-well tissue culture plate. Leave outer wells without cells for background measurements. Incubate at 37° C./5% CO2 for 16-18 hours. • Add 10× concentration compound dilution or DMSO control so that the final concentration is 1× and DMSO concentration 0.5%. Compound is prepared in 3-fold serial dilutions. Incubate for 72 h at 37° C./5% CO2. • Add Alamar Blue™ reagent to each well with multi-channel pipette and tap gently on each side of the plate to mix. Incubate for 3 hours at 37° C./5% CO2. • Read plates on fluorescence reader (Tecan i-control, 1.11.1.0, Device: infinite 200, Serial number: 810001990) at 540 nm excitation, 590 nm emission wavelength. • Data analysis using Graph pad prism Assay Acceptance Criteria • S/N Ratio should be >3. • Z′ should be >0.4

Series [2] can be described thus: Blood partitioning (blood to plasma ratio). Format: in vitro ADME. Particulars: fresh pooled whole blood, fresh mouse blood, 37° C., read-out: Mice blood to plasma ratio. The protocol:
Blood to plasma ratio defines the concentration of a drug in whole blood (that is, target drug containing both erythrocytes and plasma) to the concentration of target drug in plasma. The red blood cell partition coefficient is the ratio of the concentration of drug in the red blood cells (that is, not including plasma) to concentration of drug in plasma.
Assay Procedure: • 1. Fresh blood was collected. • 2. An aliquot of 50 μL blood was taken from individual tubes and centrifuged to check for any haemolysis. Tube with haemolysed blood was not considered for experiment. • 3. Non-haemolysed blood in individual tubes was pooled and incubated at 37° C. • 4. 999 μL aliquot of pooled blood was taken in individual tubes. One of these tubes was designated for Chloroquine (positive control). Incubations for the test compound were similarly done in other aliquot. • 5. 1 μL of test compound (0.1% DMSO concentration) or positive control solution was spiked into each of the above tubes. • 6. Above tubes were incubated at 37° C. for 30 min. • 7. Post incubation, an aliquot (˜50 μL) was taken and centrifuged to check for haemolysis. • 8. Subsequently, 100 μL of blood sample from the incubation mixture tube was transferred into a separate labeled tube and quenched with 200 μL of Acetonitrile containing Internal standard. • 9. […]

The subject of another series is DLD-1 cells. Briefly: Cytotoxicity assay, cell proliferation (Alamar Blue). Format: cell-based. The settings on record: Homo sapiens, 72 h. On the procedure:
(§3) Media Preparation Protocol:— • Media composition for cell preservation (4 ml): 900 μl of Hi-FBS+[…] of DMSO Complete Media Preparation (500 ml): For DLD1n& A375:
as §1, §2
A general note: The colour change of resazurin is a common sign of viable cells or microbes.

The test system of a further series is A375 cells. Described as above. Format: cell-based. The settings on record: Homo sapiens, A-375, 72 h. On the procedure: as §3, §1, §2
Series [3] can be described thus: Buffer stability in phosphate buffered saline. Format: physicochemical. Particulars: PBS pH 7.4, 3 μM, 37° C. On the procedure:
Assay Procedure: • 1. Test compound was prepared at 3 mM in DMSO from 10 mM working stock. • 2. The experiment was conducted in Phosphate buffered saline with a final concentration of 3 μM. • 3. The vials were incubated at 37° C. in a hybridization oven for respective time points. • 4. After incubation time, equal volumes of quenching solution was added. • 5. Samples were centrifuged at 14,000 rpm for 5 min at 4° C. • 6. Supernatant was transferred into vials and analyzed in HIPLC.

The nature of the next series: Plasma stability. Format: in vitro ADME. Particulars: 3 μM, 37° C. On the procedure:
Stability of drug assessed in plasma to determine the percent remaining and half-life of the compound.
Assay Procedure: • 1. Fresh blood was collected in tubes containing anticoagulant (K2 EDTA) and the plasma collected by centrifugation. • 2. 3 mM of the test compound was prepared in DMSO from 20 mM main stock. • 3. 1 μL of test compound (3 mM) was incubated at 37° C. in 999 μL of plasma (3 μM final concentrations, 0.1% DMSO, final volume 1,000 μL). • 4. The reactions were terminated at 0, 30, 60 and 120 min by addition of two volumes of acetonitrile, containing IS (200 ng/mL) resulting in protein precipitation. • 5. After termination of reaction at individual time points, the samples were stored at −80±10° C. till the completion of experiment. • 6. On completion of last incubation point, all the samples were centrifuge at 14,000 rpm for 10 min. • 7. Supernatant (200 μL) from each reaction tube was taken for LC-MS/MS analysis.

Where [4] appears, read: average of N1 and N2, read-out: Average pIC50 (n = 2) (converted).
Setting [5] is: replicate N1, read-out: IC50 N1.
The mark [6] stands for this setting: replicate N1, read-out: pIC50 N1 (converted).
Where [7] appears, read: replicate N2, read-out: IC50 N2.
[8] abbreviates: replicate N2, read-out: pIC50 N2 (converted).

What is called solubility is the dissolved amount per volume that the medium holds. As to `COc1ccc2nc3cc(Cl)ccc3c(NCCOCCN(C)CCOCCNc3c4ccc(Cl)cc4nc4ccc(OC)cc34)c2c1` [Dioxo-DQ-551], the solubility at 90 min in series [1] (aqueous buffer, PBS pH 7.4, 90 minutes shaking, read-out: PBS pH 7.4 solubility) is 39 µM (≈ 26.9 µg/mL); in series [1] (fassgf or other biorelevant, FaSSGF pH 1.6, 90 minutes shaking, read-out: FaSSGF pH 1.6 solubility), ~200 µM (≈ 138 µg/mL); in series [1] (FaSSIF pH 6.5, 90 minutes shaking, read-out: FaSSIF pH 6.5 solubility) it was 62 µM (≈ 42.7 µg/mL). For the same molecule, the IC50 in the series with MiaPaCa-2 cells (setting [4]) is 174 nM; in the series on MiaPaCa-2 cells (setting [5]), 150 nM; in the series on MiaPaCa-2 cells (setting [6]), 151 nM; in the series with MiaPaCa-2 cells (setting [7]), 210 nM; with MiaPaCa-2 cells (setting [8]), 204 nM; with DLD-1 cells (setting [4]) it was 708 nM. The IC50 was 330 nM in the series with DLD-1 cells (setting [5]); 324 nM in the series with DLD-1 cells (setting [6]); 1560 nM in the series on DLD-1 cells (setting [7]); 1550 nM with DLD-1 cells (setting [8]); 794 nM in the series on A375 cells (setting [4]); 440 nM in the series with A375 cells (setting [5]). Further, the IC50 in the series with A375 cells (setting [6]) is 447 nM; in the series with A375 cells (setting [7]), 1450 nM; with A375 cells (setting [8]), 1450 nM. The blood plasma ratio at 30 min in series [2] was found to be 12.6. Further, in series [3], the “PBS pH 7.4 stability (% remaining @120 min)” value was determined as 100%. In the series “Plasma stability”, the “Mouse plasma stability (% remaining @ 120 min)” value is given as 88%.
`COc1cccc2c1C(=O)c1c(O)c3c(c(O)c1C2=O)C[C@@](O)(C(=O)CO)C[C@@H]3O[C@H]1C[C@H](N)[C@H](O)[C@H](C)O1` [Doxorubicin]: the IC50 is 89.1 nM in the series on MiaPaCa-2 cells (setting [4]); 100 nM in the series with MiaPaCa-2 cells (setting [5]); 97.7 nM in the series on MiaPaCa-2 cells (setting [6]); 80 nM in the series with MiaPaCa-2 cells (setting [7]); 81.3 nM with MiaPaCa-2 cells (setting [8]); 380 nM in the series on DLD-1 cells (setting [4]). For the same molecule, the IC50 in the series on DLD-1 cells (setting [5]) is 250 nM; with DLD-1 cells (setting [6]), 245 nM; in the series with DLD-1 cells (setting [7]), 590 nM; in the series with DLD-1 cells (setting [8]), 589 nM; in the series on A375 cells (setting [4]) it was 28.2 nM; in the series on A375 cells (setting [5]) it was 20 nM. Further, the IC50 in the series on A375 cells (setting [6]) was 24.5 nM; in the series on A375 cells (setting [7]), 30 nM; with A375 cells (setting [8]) it was 31.6 nM.
Take `CCN(CC)CCCC(C)Nc1c2ccc(Cl)cc2nc2ccc(OC)cc12` (stereo not drawn) [Quinacrine]: the IC50 was 2510 nM with MiaPaCa-2 cells (setting [4]); 2680 nM in the series on MiaPaCa-2 cells (setting [5]); 2690 nM with MiaPaCa-2 cells (setting [6]); 2340 nM with MiaPaCa-2 cells (setting [7]); 2340 nM in the series with MiaPaCa-2 cells (setting [8]); 4370 nM in the series with DLD-1 cells (setting [4]). Moreover, the IC50 was 2520 nM in the series on DLD-1 cells (setting [5]); 2510 nM in the series on DLD-1 cells (setting [6]); 7540 nM in the series with DLD-1 cells (setting [7]); 7590 nM in the series on DLD-1 cells (setting [8]); 2240 nM in the series with A375 cells (setting [4]); 1280 nM with A375 cells (setting [5]). Moreover, the results for the IC50 with A375 cells (setting [6]), in the series with A375 cells (setting [7]) and in the series with A375 cells (setting [8]) were 1290 nM, 3840 nM and 3800 nM, respectively.

The record behind these values is patent publication US12343339B2, “Bisaminoquinolines and bisaminoacridines compounds and methods of their use” (THE TRUSTEES OF THE UNIVERSITY OF PENNSYLVANIA, priority 2019, dated 2025).
